Data from PubChem BioAssay AID1963852 (Molecular Pharmacology Branch, DTP, NCI, 2024).

System: 282377-053-R-J1-PDC complex spheroid viability
Assay: Anticancer human tumor 282377-053-R-J1-PDC patient-derived colon adenocarcinoma cell line growth inhibition [POLQ]
Details: for IC50: curve of first compound; for viability, T/C: stronger effect = lower value; active = viability on the fitted dose curve at most 10% of control; inactive = the rest
Outline: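 Growth inhibition in 3D: complex spheroids (tumor PDC, HUVEC, MSC) treated with POLQ inhibitor combinations; where Cmax unknown, highest tested concentration 10 microM, except SN-38 at 1 microM.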

[1] = second compound 0.0316 µM, first compound 0.0316 µM
[2] = second compound 0.0316 µM, first compound 0.1 µM
[3] = second compound 0.0316 µM, first compound 0.316 µM
[4] = second compound 0.0316 µM, first compound 1 µM
[5] = second compound 0.1 µM, first compound 0.0316 µM
[6] = second compound 0.1 µM, first compound 0.1 µM
[7] = second compound 0.1 µM, first compound 0.316 µM
[8] = second compound 0.1 µM, first compound 1 µM
[9] = second compound 0.316 µM, first compound 0.0316 µM
[10] = second compound 0.316 µM, first compound 0.1 µM
[11] = second compound 0.316 µM, first compound 0.316 µM
[12] = second compound 0.316 µM, first compound 1 µM
[13] = second compound 1 µM, first compound 0.0316 µM
[14] = second compound 1 µM, first compound 0.1 µM
[15] = second compound 1 µM, first compound 0.316 µM
[16] = second compound 1 µM, first compound 1 µM
[17] = second compound 3.16 µM, first compound 0.0316 µM
[18] = second compound 3.16 µM, first compound 0.1 µM
[19] = second compound 3.16 µM, first compound 0.316 µM
[20] = second compound 3.16 µM, first compound 1 µM
[21] = second compound 10 µM, first compound 0.0316 µM
[22] = second compound 10 µM, first compound 0.1 µM
[23] = second compound 10 µM, first compound 0.316 µM
[24] = second compound 10 µM, first compound 1 µM
[25] = second compound 0.0316 µM, first compound 3.16 µM
[26] = second compound 0.0316 µM, first compound 10 µM
[27] = second compound 0.1 µM, first compound 3.16 µM
[28] = second compound 0.1 µM, first compound 10 µM
[29] = second compound 0.316 µM, first compound 3.16 µM
[30] = second compound 0.316 µM, first compound 10 µM
[31] = second compound 1 µM, first compound 3.16 µM
[32] = second compound 1 µM, first compound 10 µM
[33] = second compound 3.16 µM, first compound 3.16 µM
[34] = second compound 3.16 µM, first compound 10 µM
[35] = second compound 10 µM, first compound 3.16 µM
[36] = second compound 10 µM, first compound 10 µM
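Note: spheroids exposed to compounds for seven days.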
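Throughout, for viability, T/C: 100% = DMSO vehicle control viability.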

CCc1c2c(nc3ccc(O)cc13)-c1cc3c(c(=O)n1C2)COC(=O)[C@]3(O)CC + COC1C(OC(N)=O)C(O)C(Oc2ccc3c(O)c(NC(=O)c4ccc(O)c(CC=C(C)C)c4)c(=O)oc3c2C)OC1(C)C
41.2 nM: IC50 (second compound 3.16 µM)
114 nM: IC50 (second compound 0.316 µM)
inactive: viability, T/C (second compound 0.0316 µM, first compound 0.00316 µM) 111% | viability, T/C (second compound 0.0316 µM, first compound 0.01 µM) 71.8% | viability, T/C [1] 59.8% | viability, T/C [2] 54% | viability, T/C [3] 30.7% | viability, T/C [4] 19.4% | viability, T/C (second compound 0.1 µM, first compound 0.00316 µM) 108% | viability, T/C (second compound 0.1 µM, first compound 0.01 µM) 90.1% | viability, T/C [5] 64.6% | viability, T/C [6] 51.8% | viability, T/C [7] 37.6% | viability, T/C [8] 19.2% | viability, T/C (second compound 0.316 µM, first compound 0.00316 µM) 124% | viability, T/C (second compound 0.316 µM, first compound 0.01 µM) 81.2% | viability, T/C [9] 60.7% | viability, T/C [10] 51% | viability, T/C [11] 37.7% | viability, T/C [12] 18.6% | viability, T/C (second compound 1 µM, first compound 0.00316 µM) 116% | viability, T/C (second compound 1 µM, first compound 0.01 µM) 93.8% | viability, T/C [13] 49.3% | viability, T/C [14] 59.1% | viability, T/C [15] 30.9% | viability, T/C [16] 21.6% | viability, T/C (second compound 3.16 µM, first compound 0.00316 µM) 115% | viability, T/C (second compound 3.16 µM, first compound 0.01 µM) 75.6% | viability, T/C [17] 46.3% | viability, T/C [18] 47.8% | viability, T/C [19] 38.6% | viability, T/C [20] 25% | viability, T/C (second compound 10 µM, first compound 0.00316 µM) 102% | viability, T/C (second compound 10 µM, first compound 0.01 µM) 72.6% | viability, T/C [21] 56% | viability, T/C [22] 39.2% | viability, T/C [23] 41.9% | viability, T/C [24] 16.6%
52.1 nM: IC50 (second compound 10 µM)
115 nM: IC50 (second compound 0.1 µM)
92.1 nM: IC50 (second compound 0.0316 µM)
78.9 nM: IC50 (second compound 1 µM)

COc1ccc([C@@H](O)c2cc(-c3ncnc4cc(N5CCOCC5)ccc34)c(F)cc2Cl)nn1 + Cc1cccc(N(C)C(=O)C2C(O)CCN2c2nc(C)cc(C(F)(F)F)c2C#N)c1
> 10000 nM: IC50 (second compound 0.0316 µM) | IC50 (second compound 0.1 µM) | IC50 (second compound 0.316 µM) | IC50 (second compound 1 µM) | IC50 (second compound 3.16 µM) | IC50 (second compound 10 µM)
inactive: viability, T/C [1] 104% | viability, T/C [2] 115% | viability, T/C [3] 108% | viability, T/C [4] 103% | viability, T/C [25] 78.3% | viability, T/C [26] 62.4% | viability, T/C [5] 106% | viability, T/C [6] 106% | viability, T/C [7] 89.1% | viability, T/C [8] 110% | viability, T/C [27] 72.2% | viability, T/C [28] 75.1% | viability, T/C [9] 110% | viability, T/C [10] 90% | viability, T/C [11] 97.6% | viability, T/C [12] 93.1% | viability, T/C [29] 102% | viability, T/C [30] 62.2% | viability, T/C [13] 111% | viability, T/C [14] 80.1% | viability, T/C [15] 97.7% | viability, T/C [16] 83.2% | viability, T/C [31] 103% | viability, T/C [32] 53.1% | viability, T/C [17] 122% | viability, T/C [18] 98.9% | viability, T/C [19] 108% | viability, T/C [20] 87.8% | viability, T/C [33] 101% | viability, T/C [34] 68.5% | viability, T/C [21] 87.9% | viability, T/C [22] 87.6% | viability, T/C [23] 109% | viability, T/C [24] 76.6% | viability, T/C [35] 64.3% | viability, T/C [36] 54.3%

CC1COCCN1c1cc(C2(O)CC3CCC(C2)O3)c2cnn(-c3ccn[nH]3)c2n1 (stereo unspecified) + COC1C(OC(N)=O)C(O)C(Oc2ccc3c(O)c(NC(=O)c4ccc(O)c(CC=C(C)C)c4)c(=O)oc3c2C)OC1(C)C
inactive: viability, T/C [1] 112% | viability, T/C [2] 89.5% | viability, T/C [3] 53.8% | viability, T/C [4] 35.9% | viability, T/C [25] 24.6% | viability, T/C [26] 20.8% | viability, T/C [5] 88.8% | viability, T/C [6] 92.1% | viability, T/C [7] 50.4% | viability, T/C [8] 31.4% | viability, T/C [27] 28.2% | viability, T/C [28] 18.8% | viability, T/C [9] 92.8% | viability, T/C [10] 91.3% | viability, T/C [11] 60.8% | viability, T/C [12] 32.9% | viability, T/C [29] 34.8% | viability, T/C [30] 18.7% | viability, T/C [13] 92.4% | viability, T/C [14] 77.2% | viability, T/C [15] 57.9% | viability, T/C [16] 36.3% | viability, T/C [31] 28.4% | viability, T/C [32] 19.5% | viability, T/C [17] 115% | viability, T/C [18] 74.5% | viability, T/C [19] 54.8% | viability, T/C [20] 42% | viability, T/C [33] 33% | viability, T/C [34] 18.6% | viability, T/C [21] 101% | viability, T/C [22] 73.7% | viability, T/C [23] 47.3% | viability, T/C [24] 36.4% | viability, T/C [35] 27.9% | viability, T/C [36] 22.6%
307 nM: IC50 (second compound 10 µM)
430 nM: IC50 (second compound 0.0316 µM)
506 nM: IC50 (second compound 0.316 µM)
456 nM: IC50 (second compound 3.16 µM)
485 nM: IC50 (second compound 1 µM)
325 nM: IC50 (second compound 0.1 µM)
